Paper PMC11402040 (ESMO Open, 2024)

Key:
[1] = cited from earlier work; for LFT elevations in the clinic: dose levels evaluated in the clinic
CYP3A = assay: phase I Part 1B PK, CYP3A-mediated drug–drug interaction with enzalutamide; assay type: in vivo, human; conditions: coadministered enzalutamide 160 mg q.d.

| Compound | bleeding in clinical studies [1] | LFT elevations in the clinic [1] | further results |
| --- | --- | --- | --- |
| fresolimumab: other TGF-β inhibitor in clinical studies | Bleeding (including intratumoral bleeding) has been observed |  |  |
| CC(C)(O)c1cc(Nc2cc(Oc3cn(C4CC4)nc3C3CCOCC3)ccn2)ccn1 [LY3200882] |  | not demonstrated severe LFT elevations |  |
| CNC(=O)c1ccc(N2C(=S)N(c3ccc(C#N)c(C(F)(F)F)c3)C(=O)C2(C)C)cc1F [enzalutamide] |  |  | CYP3A4 enzyme induction effect on PF-06952229 (CYP3A): strong cytochrome P450 3A4 (CYP3A4) enzyme induction effect |
| Cc1cccc(-c2nn3c(c2-c2ccnc4ccc(C(N)=O)cc24)CCC3)n1 [galunisertib] |  | not demonstrated severe LFT elevations |  |
| bintrafusp alfa: bifunctional fusion protein targeting TGF-β and PD-L1 | Bleeding (including intratumoral bleeding) has been observed |  |  |
